Results from patent US20130156819A1, “ISOLATION OF MESENCHYMAL STEM CELLS” (Baden-Württemberg Stiftung gGmbH, priority 2010, published 2013).
Square brackets hold non-standard residues; d marks the D form. Ends that are not written are not given here. Orn = NCCC[C@H](N)C(=O)O; DOA = not defined here; Doa = not defined here

Assays:
MSCs = assay: Adhesion of MSCs to BSA-coupled peptide microarrays (MSA technology); format: cell-based, human; details: peptide coupled to bovine serum albumin, incubation two hours, FIG. 2
Experimental: (§1) The adhesion of cells to peptides was also measured using the MSA™ technology (see Kuschel et al., 2006) as above in example 1. Instead of the extracellular matrix proteins, however, peptides coupled to bovine serum albumin were printed in the form of microarrays (8×8 microspots) onto the nitrocellulose layer, and then the remaining surface was sealed. For incubation with cells, small silicone chambers were placed on the coated slides, and incubated with MSCs or fibroblasts. After incubation for two hours, the non-adherent cells were washed away.
(§2) Adherent cells were made visible on the white nitrocellulose film by staining with Coomassie Blue and were evaluated in a motorized photomicroscope: the number of blue cells or the color intensity per spot is measured and transferred to tables for evaluation.
(§3) Evaluation of these arrays using the semi-automatic photomicroscope gave the relative binding strength on PLL (standardized to 100%, positive control) and BSA (standardized to 0%, negative control) for the peptides tested in each case.

fibroblasts = assay: Adhesion of fibroblasts to BSA-coupled peptide microarrays (MSA technology); format: cell-based, human; details: peptide coupled to bovine serum albumin, incubation two hours, FIG. 3
Experimental: as §1, §2, §3

[1] = tested on: human mesenchymal stem cells (MSC); assay: Adherence of MSCs on immobilized matrix proteins (Multiple Substrate Array chip); format: cell-based; details: immobilized protein on MSA chip, 20 000 cells/test chamber, FIG. 1
Experimental: The adherence of human mesenchymal stem cells (MSC, samples 5 and 6 in FIG. 1) and human fibroblasts (samples 1 to 4 in FIG. 1) on matrix proteins was investigated in a comparative test. The investigation was carried out using a chip (Multiple Substrate Array (MSA®)), on which the proteins were immobilized. The procedure used as such was as described in Kuschel et al., “Cell adhesion profiling using extracellular matrix protein microarrays”, Biotechniques 40: 523-531 (2006).
MSCs were enriched from bone marrow by density gradient centrifugation, cultivated as an adherent population in MSC-expansion medium, and harvested. The differentiation potential was tested on an aliquot and adipogenic, chondrogenic and osteogenic differentiation was confirmed. Therefore the cells fulfill the physiological requirements for MSCs (M. Dominici et al. 2006, Cytotherapy, 8: 315 ff). […]
Fibroblasts were isolated from the synovial membrane and expanded as described (Aicher et al. 1994 J. Immunol. 152: 5940 ff). The cells were harvested, washed, counted and in each case 20 000/test chamber were investigated using MSA™ chip technology for adherence to proteins. […] Cells adhering to the proteins were fixed chemically and their nuclei were marked with dye, for quantitation of the number of adherent cells per microspot of protein. […]

Substance	adhesion of MSCs to the peptide (MSCs)	adhesion of fibroblasts to the peptide (fibroblasts)	binding of the MSCs to the protein compared with binding of fibroblasts [1]
DRVPHSRNSIT-OH (listed as Homo sapiens) [No. 20]	make the adhesion of MSCs possible	not that of fibroblasts	
GF-Orn-GER-OH (GF[Orn]GER-OH; N-terminus assumed; SMILES N=C(N)NCCC[C@H](NC(=O)[C@H](CCC(=O)O)NC(=O)CNC(=O)[C@H](CCCN)NC(=O)[C@H](Cc1ccccc1)NC(=O)CN)C(=O)O) [No. 1]	make the adhesion of MSCs possible	not that of fibroblasts	
EILDV-COOH (EILDV-OH; listed as Homo sapiens) [No. 22-COOH]	make the adhesion of MSCs possible	not that of fibroblasts	
LRE-OH (Leu-Arg-Glu-OH; listed as Homo sapiens) [No. 9]	make the adhesion of MSCs possible	not that of fibroblasts	
DVISLYNFKHIY-OH (listed as Homo sapiens) [No. 16]	make the adhesion of MSCs possible	not that of fibroblasts	
GRGDSO-OH (GRGDS[Orn]-OH; N-terminus assumed; SMILES N=C(N)NCCC[C@H](NC(=O)CN)C(=O)NCC(=O)N[C@@H](CC(=O)O)C(=O)N[C@@H](CO)C(=O)N[C@@H](CCCN)C(=O)O; listed as Homo sapiens) [No. 11]	make the adhesion of MSCs possible	not that of fibroblasts	
LAIKNDNLVYVY-OH (listed as Homo sapiens) [No. 15]	make the adhesion of MSCs possible	not that of fibroblasts	
YIIR-DOA-A-OH (YIIR[DOA]A-OH; reading uncertain; also: printed as YIIR-DOA-A-OH; listed as Homo sapiens) [No. 34-COOH]	make the adhesion of MSCs possible	not that of fibroblasts	
EILDV-OH (listed as Homo sapiens) [No. 22]	make the adhesion of MSCs possible	not that of fibroblasts	
tenascin-C: oligomeric glycoprotein of the extracellular matrix, immobilized on the chip			firmer
KRSR-DOA-A-OH (KRSR[DOA]A-OH; reading uncertain; also: printed as KRSR-DOA-A-OH; listed as Homo sapiens) [No. 37b]	make the adhesion of MSCs possible	not that of fibroblasts	
YIIR-OH (listed as Homo sapiens) [No. 34]	make the adhesion of MSCs possible	not that of fibroblasts	
KREDVY-OH (listed as Homo sapiens) [No. 21]	make the adhesion of MSCs possible	not that of fibroblasts	
LRE-Doa-A-OH (LRE[Doa]A-OH; reading uncertain; also: printed as LRE-Doa-A-OH; listed as Homo sapiens) [No. 9-COOH]	make the adhesion of MSCs possible	not that of fibroblasts	
KREDVY-COOH (KREDVY-OH; listed as Homo sapiens) [No. 21-COOH]	make the adhesion of MSCs possible	not that of fibroblasts	
GEFYFDLRLKGDK-OH (listed as Homo sapiens) [No. 5]	make the adhesion of MSCs possible	not that of fibroblasts	
WTPPRAQITGYRLTVGLTRR-OH (listed as Homo sapiens) [No. 30]	make the adhesion of MSCs possible	not that of fibroblasts	
